Source: patent US9439414B2, “Sperm diluent solution and method for artificial insemination using same” (HIROSHIMA UNIVERSITY, priority 2009, dated 2016)

Tests used:
pig sperm [1] = test: Sperm motility by motility analyzer (CASA); type: cell-based; conditions: EGTA 0, 3, 6, 9 mM added to Modena solution (6.3 mM EDTA); 1, 3 or 6 hours
Procedure: Media having concentrations of EDTA of 0 mM, 3 mM, 6.3 mM and 12 mM were prepared. The 0-mM-EDTA medium and the 3-mM-EDTA medium were prepared by removing EDTA-2Na from Modena solution and adjusting the EDTA concentration to 0 mM and 3 mM, respectively. As the 6.3-mM-EDTA medium, Modena solution was used as it is. Further, the 12-mM-EDTA medium was prepared by adding EDTA-2Na to Modena solution to attain an EDTA concentration of 12 mM.
To each medium, frozen sperm were added after thawing as in Experimental Example 1, and the sperm were cultured. The culturing time was 1 hour, 3 hours or 6 hours.
After the culture, the sperm motility was calculated using a motility analyzer (computer-assisted sperm motility analysis (CASA) system). On a plate prewarmed to 38° C., 5 μl of the medium after the culture was placed, and the ratio of moving sperm was analyzed using a computer.
0-mM-EGTA medium, 3-mM-EGTA medium, 6-mM-EGTA medium and 9-mM-EGTA medium were prepared. As the 0-mM-EGTA medium, Modena solution was used as it is. Further, the 3-mM-EGTA medium, 6-mM-EGTA medium and 9-mM-EGTA medium were prepared by adding EGTA to Modena solution to attain EGTA concentrations of 3 mM, 6 mM and 9 mM, respectively, in the medium. Since addition of EGTA results in more acidic pH of the medium, NaOH was added to the medium to adjust pH to 7.0 to 7.1. […]

pig sperm [2] = test: Sperm acrosomal damage rate (FITC-peanut lectin staining); type: cell-based; conditions: EGTA 0, 3, 6, 9 mM in Modena solution
Procedure: 0-mM-EGTA medium, 3-mM-EGTA medium, 6-mM-EGTA medium and 9-mM-EGTA medium were prepared. As the 0-mM-EGTA medium, Modena solution was used as it is. Further, the 3-mM-EGTA medium, 6-mM-EGTA medium and 9-mM-EGTA medium were prepared by adding EGTA to Modena solution to attain EGTA concentrations of 3 mM, 6 mM and 9 mM, respectively, in the medium. Since addition of EGTA results in more acidic pH of the medium, NaOH was added to the medium to adjust pH to 7.0 to 7.1.
To each medium, frozen sperm were added after thawing as in Experimental Example 1, and the sperm was cultured. The culturing time was 1 hour, 3 hours or 6 hours.
The measurement of the sperm motility and detection of phosphorylation of tyrosine residues of the sperm proteins were carried out in the same manner as described above. The measurement of the sperm acrosomal damage rate was carried out as follows. On a slide glass, 5 μl of the medium was smeared, followed by air drying and 10 minutes of fixation with 99% methanol. After drying the methanol, marking was done with a liquid pen. FITC-peanut lectin was added to the smeared sperm (about 30 μl per sample), followed by 30 minutes of incubation at 37° C. in a moist atmosphere. Thereafter, the sperm were washed with PBS (5 minutes×3 times) and embedded in DAPI (VECTOR, VECTASHIELD with DAPI, H-1200) and then in manicure, followed by observation of the sperm.

mother pigs and piglets = test: Health of mother pigs and piglets after artificial insemination with the cortisol-containing sperm diluent; type: in vivo, pig; conditions: 5 μg cortisol injected to the uterus
Procedure: Although the above adrenocortical hormone (a steroid hormone such as cortisol) is usually injected at a dose of 5 to 50 mg per individual for therapy of livestock, only 5 μg was injected to the uterus in the artificial insemination of the present Example. Thus, since this dose is about 1,000 to 10,000 times smaller than the dose in the cases of therapeutic use, it is thought that the meat of the mother pig and the fetuses in the uterus are not affected.

| SMILES | sperm motility (FIG. 3) (pig sperm [1]) | sperm acrosomal damage rate (FIG. 5) (pig sperm [2]) | deformed piglets after the delivery (mother pigs and piglets) |
| --- | --- | --- | --- |
| O=C(O)CN(CCOCCOCCN(CC(=O)O)CC(=O)O)CC(=O)O [EGTA, ethylene glycol Bis(2-aminoethyl)-N,N,N′,N′-tetraacetic acid] | high | low |  |
| C[C@]12CCC(=O)C=C1CC[C@@H]1[C@@H]2[C@@H](O)C[C@@]2(C)[C@H]1CC[C@]2(O)C(=O)CO [cortisol] |  |  | no deformed piglet was found |
